These results are taken from patent US20240172749A1, “USE OF NITRAPYRIN FOR IMPROVED PLANT GROWTH AND DEVELOPMENT” (Verdesian Life Sciences U.S., LLC, priority 2021, published 2024).

For data set [1] the following is noted: compositions and/or formulations containing high amounts of water; cited from earlier work.
A further data set deals with corn seedlings. As to the kind of experiment: Greenhouse study of nitrapyrin as a biostimulant, shoot dry weight (biomass) of corn seedlings. Format: in vivo. The following applies: applied at lower concentrations/label rates than typically employed as nitrification inhibitor (equal to or lower than 45.4 grams of nitrapyrin per acre). Here is the method:
Com seeds were sown in 3-liter pots filled with a peat-vermiculite-perlite potting mix. Plants were grown for a period of 14 days in a greenhouse under standard conditions (28/32° C. night/day temperatures, 16-hour photoperiod, 55% relative humidity, 800 uMol/m2/s light intensity). Seven days after planting, treatments were applied using a 3×3 factorial treatment design (3 nitrapyrin rates×3 fertilizer treatments), with 4 biological replications per treatment combination. Plants were arranged in a completely randomized layout on the greenhouse bench. Nitrapyrin rates were: 0.0 g/plant (acetonitrile only), 0.0005 g/plant and 0.00073 g/plant, with each treatment unit dissolved in 5 mL of acetonitrile. Fertilizer treatments were: No fertilizer (water only), 15-5-15, and 6-24-6. Fertilizers were delivered at a rate of 100 ppm nitrogen, 3 times/week beginning on day 7 through day 14. Nitrapyrin treatments were given only once on day 7. Plants were monitored for signs of phytotoxicity during the experiment. On day 14, plants were harvested and dried in a forced-air oven. Dried plants were weighed individually for biomass. For results see FIG. 1.
A second experiment was performed with the same execution as described above, but with additional treatment groups and additional growing time (21 days). […]

For the compound `Clc1cccc(C(Cl)(Cl)Cl)n1` [nitrapyrin, Nitrapyrin], the degradation of nitrapyrin entry in data set [1] is listed as “rapid degradation”. Moreover, the “biostimulant properties (improvement in plant growth and/or vigor)” value in the data set with corn seedlings is reported as “can exhibit biostimulant properties”.
